Biological target: T1, α-Lac (α-lactalbumin) (Bos taurus, UniProt P00711)
T1 construct: gene LALBA; native mature protein from bovine milk, type III, calcium depleted (apo form, EDTA buffer); signal peptide absent
T1 sequence (P00711 20-142): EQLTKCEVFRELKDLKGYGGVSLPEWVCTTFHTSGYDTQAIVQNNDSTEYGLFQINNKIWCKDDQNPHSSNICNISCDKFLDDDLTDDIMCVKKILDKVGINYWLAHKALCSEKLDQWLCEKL
Assay: isothermal titration calorimetry
Type: binding
Settings: 20 mM Tris pH 7, 25 °C, 3.5 mM EDTA (apo form), unreliable (authors urge care: no clear pre- or post-transition, heat does not level off)
Source text: isothermal titration calorimetry on α-Lac (α-lactalbumin)

Structure (SMILES)	K (M^-1) (n = 0.9)	K (M^-1) (up to 3% ethanol, n = 1.8)
COc1cccc2c1C(=O)c1c(O)c3c(c(O)c1C2=O)C[C@@](O)(C(=O)CO)C[C@@H]3O[C@H]1C[C@H](N)[C@H](O)[C@H](C)O1 [DOX, doxorubicin]	(6.7 ± 1.61) × 10^3 M^-1	–
CC(=O)O[C@H]1C(=O)[C@@]2(C)[C@H]([C@H](OC(=O)c3ccccc3)[C@]3(O)C[C@H](OC(=O)[C@H](O)[C@@H](NC(=O)c4ccccc4)c4ccccc4)C(C)=C1C3(C)C)[C@]1(OC(C)=O)CO[C@@H]1C[C@@H]2O [PTX, paclitaxel]	–	(14 ± 4.82) × 10^3 M^-1

— PMC6255783, “A biophysical study on the mechanism of interactions of DOX or PTX with α-lactalbumin as a delivery carrier” (Scientific Reports, 2018)
